Data on one compound can be found in patent EP0194571A1, “Heterocyclic disulfides, process for their preparation and pharmaceutical preparations containing them” (HOECHST AKTIENGESELLSCHAFT, priority 1985, dated 1986).

Assay [1] deals with Maus-Peritonealmakrophagen. The assay is described as follows: Activation of mononuclear phagocytes: oxidative metabolism (chemiluminescence) of peritoneal macrophages from treated mice. The class given is in vivo, NMRI-Mäuse. Particulars: relative to maximal activation by compound of Beispiel 8 = 100 %; 100 mg/kg i.p. The method, then:
(§1) Hier wurde der Einfluß der nach Ausführungsbeispiel 8 erhaltenen Prüfsubstanz auf die Stimulation von Peritonealmakrophagen bei 6- 8 Wochen alten NMRI-Mäusen untersucht. Mäuseweibchen erhielten auf parenteralem oder oralem Wege die Prüfsubstanz in einer Dosis von 25 mg/kg, 50 mg/kg, 100 mg/kg und 200 mg/kg. Der Kontrollgruppe wurde gepufferte Kochsalzlösung verabreicht. Drei Tage nach den Injektionen wurden die Mäuse getötet, und es wurden die Peritonealmakrophagen der Tiere auf ihren Aktivierungszustand hin untersucht. Als Maß der Makrophagenaktivierung wurde zum einen die Sekretion der lyosomalen Enzyme (ß-Galactosidase, ß-Glucuronidase, N-Acetyl-ß-D-Glucosaminidase) bestimmt. Auf der anderen Seite konnte in vergleichbaren Makrophagenkulturen die Pinozytose durch die Aufnahme von kolloidalem Gold (^19^8Au) - wie sie dem Fachmann bekannt ist - untersucht werden. Die Höhe des oxidativen Stoffwechsels bei Makrophagen gilt als ein weiteres Maß für ihren Aktivierungszustand. Gemessen wird diese Aktivität unter Zuhilfenahme des Biolumaten durch Bestimmung der Chemolumineszenz.
(§2) Zu diesem Zweck wurden entweder in Petrischalen von 30 mm Durchmesser 3 x 10^6 Makrophagen mit 1 ml TC 199-Kulturmedium oder aber 10^6 Makrophagen mit 100 µl in Rundbogen-Polyäthylen-Röhrchen (zur Bestimmung der Chemolumineszenz) bei 5 % G02 und 37°C kultiviert.
(§3) Nach einstündiger Bebrütung wurden die Kulturen gewaschen, um schwimmende Zellen zu entfernen. Die Chemolumineszenz (Röhrchenkultur) wurde dann direkt bestimmt, während die Petrischalen erneut 24 Stunden bei 37°C bebrütet wurden und danach die Enzym- und Pinozytoseaktivität in den Kulturen bestimmt wurde. Es wurden die nachstehenden Ergebnisse erzielt.
Die parenterale sowie die orale Behandlung von NMRI-Mäusen mit der gemäß Beispiel 8 hergestellten Prüfsubstanz stimuliert die Makrophagenaktivität und hat damit eine immunitätstimulierende Wirkung. So wird der oxidative Stoffwechsel bei Makrophagen mit der Generierung von Sauerstoffradikalen und dem damit verbundenen meßbaren Licht deutlich erhöht. Bei Dosierungen von 25 mg/kg aufwärts kommt es zu einer dosisabhänigen Steigerung der Makrophagenaktivität sowohl bei parenteraler als auch oraler Applikation.
Wie im Experiment 2 beschrieben, wurden NMRI-Mäuse mit den erfindungsgemäßen Verbindungen behandelt.
Als Test zur Erfassung der Immunstimulation wurde die Funktion der Makrophagen (Chemolumineszenz und Enzymaktivität) überprüft.
Tabelle 8 zeigt die relative Wirksamkeit der Prüfsubstanzen bezogen auf die Verbindung aus Beispiel 8, deren maximale Aktivierung (Differenz zwischen Kontrolle und Stimulation) 100 % entspricht. Der Tabelle ist zu entnehmen, daß im Vergleich zu Makrophagen aus unbehandelten Tieren, diese Zellen auch durch alle Prüfsubstanzen in ihrer Chemolumineszenzreaktion stark stimuliert und in ihrem Gehalt an lysosomalen Enzymen deutlich erhöht waren.

For assay [2], the system named is Maus-Peritonealmakrophagen. The assay is described as follows: Pinocytosis of colloidal gold (198Au) by peritoneal macrophages from treated mice. The class given is in vivo, NMRI-Mäuse. The following applies: uptake of colloidal 198Au. The protocol: as §1, §2, §3
Die quantitative Bestimmung der Pinozytoseaktivität bei mononukleären Phagozyten wurde nach der Methode von Davies et al. durchgeführt (Davies, P. Allison, A.C. und Haswell, A.D.; Biochem. Biophys. Res. Com. 52, 627, 1973). Dazu wurde radioaktives, kolloidales Gold (^198Au) mit einer Partikelgröße von 20 nm und einer spezifischen Aktivität von 4-12 mCl/mg Au benutzt. Die Ergebnisse in Tabelle 4 veranschaulichen den Effekt der nach Beispiel 8 erhaltenen Prüfsubstanz auf die Endozytoseleistung. Die Pinozytose von kolloidalem Gold (^19^8Au) durch Maus-Peritonealmakrophagen von mit der erfindungsgemäßen Verbindung behandelten Tieren ist im Vergleich mit den Makrophagen von unbehandelten Tieren signifikant und dosisabhängig erhöht.

Assay [3] has as its system Candida albicans. Put plainly: Therapeutic treatment of a chronic Candida albicans infection (germ counts in urine and kidneys, kidney necrosis). Format: in vivo, Balb/c-Mäuse. Particulars: Tag 30, 60 mg/kg i.p. Tag 3-10. The protocol:
Bei der therapeutischen Behandlung einer chronischen Candida albicans Infektion wurden weibliche Balb/c-Mäuse (15/Gruppe) am Tag 0 intravenös mit Candida albicans (1 x 10^5 CFU/Maus) infiziert. Nach erfolgter Infektion wurden die Tiere an 8 aufeinanderfolgenden Tagen (Tag 3 - 10) mit jeweils 60 mg/kg der Prüfsubstanz (Verbindung nach Ausführungsbeispiel 8) intraperitoneal behandelt. Den Kontrolltieren wurde physiologische Kochsalzlösung injiziert. An den Tagen 8, 14 und 21 wurden den Tieren Urin entnommen und die Keimzahl bestimmt. Am Tag 30 wurden die Tiere getötet und die Keimzahl und die Nekrosenbildung der Nieren bestimmt. Die Tabelle 6 zeigt, daß die Prüfsubstanz bei therapeutischer Gabe deutlich alle Parameter der chronischen Candida albicans Infektion (Keimzahl in Urin und Nieren und Nekrosenbildung) reduziert und damit die Erkrankung therapeutisch beeinflußt. Während bei den Kontrolltieren sich zu einem hohen Prozentsatz Keime im Urin nachweisen lassen, wird bei den behandelten Tieren die Keimzahl signifikant erniedrigt.
Auch die Keimbesiedlung der Nieren wird durch die Therapie von 63 % auf 27 % reduziert, bei einer gleichzeitigen Verringerung der Nekrosenbildung von 87 % auf 10 %.

Turning to `Cc1nc(SSc2nc(C)c(CC(=O)O)s2)sc1CC(=O)O` [Beispiel 8, Bis-(5-Carboxymethyl-4-methyl-thiazol-2-yl)-disulfid], the “Makrophagenaktivität Chemolumineszenz” value in assay [1] was found to be 100%. Also, the “Pinozytoseleistung von Mausmakrophagen” value in assay [2] (1 x 25 mg/kg intraperitoneal) is reported as 0,341 " " x 10^3 cpm; in assay [2] (1 x 25 mg/kg oral), 0,272 " " x 10^3 cpm; in assay [2] (1 x 50 mg/kg intraperitoneal), 0,396 " " x 10^3 cpm; in assay [2] (1 x 50 mg/kg oral) it was 0,358 " " x 10^3 cpm; in assay [2] (1 x 100 mg/kg intraperitoneal) it was 0,462 " " x 10^3 cpm; in assay [2] (1 x 100 mg/kg oral) it was 0,416 " " x 10^3 cpm. The figures for the “Pinozytoseleistung von Mausmakrophagen” value in assay [2] (1 x 200 mg/kg intraperitoneal) and in assay [2] (1 x 200 mg/kg oral) were 0,587 " " x 10^3 cpm and 0,506 " " x 10^3 cpm, respectively. Besides, the “Keimbesiedlung der Nieren” value in assay [3] (control 63 %) was 27%. The compound also showed a Nekrosenbildung in assay [3] (kidneys, control 87 %) of 10%.
